This passage reports Ki results from patent US7858618B2, “Compounds” (Boehringer Ingelheim International GmbH, priority 2006, dated 2010).

Each structure is given as a SMILES string.

The target in the experiment is T1, hBK1 receptor (Homo sapiens, UniProt P46663).
T1 construct: expressed in transfected cells; host or cells: CHO cells
T1 sequence (P46663 1-353): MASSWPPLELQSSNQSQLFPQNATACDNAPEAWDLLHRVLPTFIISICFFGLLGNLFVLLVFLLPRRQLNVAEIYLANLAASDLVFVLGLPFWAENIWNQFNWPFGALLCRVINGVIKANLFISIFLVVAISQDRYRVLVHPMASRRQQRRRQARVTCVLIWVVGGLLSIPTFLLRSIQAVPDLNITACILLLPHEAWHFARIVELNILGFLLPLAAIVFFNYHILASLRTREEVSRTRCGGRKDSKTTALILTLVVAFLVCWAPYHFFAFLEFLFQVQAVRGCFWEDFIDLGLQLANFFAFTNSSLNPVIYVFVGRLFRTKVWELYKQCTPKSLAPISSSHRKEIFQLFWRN
As to the kind of experiment: hBK1 receptor binding (displacement of [3H]-kallidin (DesArg10, Leu9) from membranes of CHO cells expressing the hBK1 receptor). The conditions noted are these: CHO cell membranes expressing hBK1 receptor; 0.5 to 1.0 nM [3H]-kallidin (DesArg10, Leu9); 60 minutes at room temperature. The protocol:
Description of the Method of hBK1 Receptor Binding
CHO cells expressing the hBK1 receptor are cultivated in Dulbecco's modified medium. The medium from confluent cultures is removed and the cells are washed with PBS buffer, scraped off and isolated by centrifugation. The cells are then homogenized in suspension and the homogenate is centrifuged and resuspended. The protein content is determined and the membrane preparation obtained in this manner is then frozen at −80° C.
After thawing, 200 μl of the homogenate (50 to 100 μg of proteins/assay) are incubated at room temperature with 0.5 to 1.0 nM of kallidin (DesArg10, Leu9), [3,4-prolyl-3,43H(N)] and increasing concentrations of the test substance in a total volume of 250 μl for 60 minutes. The incubation is terminated by rapid filtration through GF/B glass fibre filters which had been pretreated with polyethyleneimine (0.3%). The protein-bound radioactivity is measured in a TopCount NXT. Non-specific binding is defined as radioactivity bound in the presence of 1.0 μM of kallidin (DesArg10, Leu9), [3,4-prolyl-3,43H(N)]. The concentration/binding curve is analysed using a computer-assisted nonlinear curve fitting. The Ki which corresponds to the test substance is determined using the data obtained in this manner. […]

As for `COc1cc(C)c(S(=O)(=O)N(C)CCOCC(=O)N(C)[C@H]2CC[C@@H](N3CCN(C)CC3)CC2)c(C)c1` [(589)], the affinity, expressed as Ki, was 5.1 nM. This counts as single-digit nanomolar. For `COc1cc(C)c(S(=O)(=O)N(C)CCOCC(=O)N(C)[C@H]2CC[C@@H](CCN3CCOCC3)CC2)c(C)c1` [(619)] the value was 1.2 nM; for `COc1cc(C)c(S(=O)(=O)N(C)CCC(=O)Nc2cc(C)c(N3CCC(N(C)C)CC3)cc2Cl)c(C)c1` [(186)], 3.4 nM; for `COc1cc(C)c(S(=O)(=O)N(C)CCOCC(=O)N(C)C[C@H]2CC[C@@H](NCCN(C)C)CC2)c(C)c1` [(383)], 6.2 nM. For `COc1cc(C)c(S(=O)(=O)N(C)CCCCC(=O)N(C)CC2CCN(c3ccncc3)CC2)c(C)c1` [(130)] the value was 5.7 nM; for `COc1cc(C)c(S(=O)(=O)N(C)CCOCC(=O)N(C)Cc2ccc(CNC(C)C)cc2)c(C)c1` [(59)], 6.3 nM.

With `COc1cc(C)c(S(=O)(=O)N(C)CCOCC(=O)N(C)Cc2ccc(-c3cn(C)c(C)n3)cc2)c(C)c1` [(67)], the inhibition constant (Ki) worked out at 0.4 nM. As for `COc1cc(C)c(S(=O)(=O)N(C)CCOCC(=O)N(C)C(C)[C@H]2CC[C@H](CN3CCCC3)CC2)c(C)c1` (stereo partly drawn) [(616)], affinity was put at a Ki of 3.7 nM. For `COc1cc(C)c(S(=O)(=O)N(C)CCOCC(=O)N(C)Cc2ccc(N(C)CCN(C)C)cc2)c(C)c1` [(323)] the value was 2.8 nM; for `CCN1CCC(N2CC[C@@H](N(C)C(=O)COCCN(C)S(=O)(=O)c3c(C)cc(OC)cc3C)C2)CC1` [(400)], 0.79 nM. Turning to `COc1cc(C)c(S(=O)(=O)N(C)CCOCC(=O)N(C)CC2CCN(c3ccncc3)CC2)c(C)c1` [(61)], affinity was put at a Ki of 3.3 nM. `COc1cc(C)c(S(=O)(=O)N(C)CCOCC(=O)N(C)C2CCN(C3CCN(C)CC3)CC2)c(C)c1` [(397)] returned a Ki of 7.5 nM. This Ki lies about 2.3-fold higher than the previous one. For `COc1cc(C)c(S(=O)(=O)N(C)CCOCC(=O)N(C)C[C@@H]2CC[C@H](CN3CCCC3)C2)c(C)c1` [(425)] the value was 8.3 nM; for `COc1cc(C)c(S(=O)(=O)N(C)CCOCC(=O)N(C)Cc2ccc(-c3cn4ccccc4n3)cc2)c(C)c1` [(73)], 6.8 nM. For `COc1cc(C)c(S(=O)(=O)N(C)CCOCC(=O)N(C)Cc2ccc(N3CCCC3CN(C)C)cc2)c(C)c1` (stereo not drawn) [(335)] the value was 9.37 nM.

`COc1cc(C)c(S(=O)(=O)N(C)CCOCC(=O)N(C)Cc2ccc3[nH]c(CN(C)C)nc3c2)c(C)c1` [(404)] had a Ki of 2.8 nM. This Ki lies about 3.3-fold lower than the previous one. Compound `COc1cc(C)c(S(=O)(=O)N(C)CCOCC(=O)N(C)Cc2ccc(N3CCC(N(C)C)C3)cc2Cl)c(C)c1` (stereo not drawn) [(356)] came in with a Ki of 8.8 nM. Against the preceding compound, the Ki is about 3.1-fold higher. For `COc1cc(C)c(S(=O)(=O)N(C)CCOCC(=O)N(C)[C@H]2CC[C@@H](CN3CC[C@H](N4CCCC4)C3)CC2)c(C)c1` [(471)] the value was 4.1 nM; for `COc1cc(C)c(S(=O)(=O)N(C)CCC(=O)Nc2ccc(N3CCC(N(C)C)CC3)c(Cl)c2)c(C)c1` [(180)], 5.2 nM; for `COc1cc(C)c(S(=O)(=O)N(C)CCOCC(=O)N(C)C(C)c2ccc3c(c2)CCN(C)CC3)c(C)c1` (stereo not drawn) [(386)], 6.3 nM. For `COc1cc(C)c(S(=O)(=O)N(C)CCOCC(=O)N(C)Cc2ccc(CNC3CCCC3)cc2)c(C)c1` [(72)] the value was 2.8 nM; for `COc1cc(C)c(S(=O)(=O)N(C)CCOCC(=O)N(C)[C@H]2CC[C@H](CCN3CCCC3)CC2)c(C)c1` [(439)], 7.5 nM. Consider `COc1cc(C)c(S(=O)(=O)N(C)CCC(=O)Nc2ccc(N3CCN(c4cc[n+](C)cc4)CC3)cc2)c(C)c1` [(227)], for which the Ki came out at 4.8 nM. In turn, `COc1cc(C)c(S(=O)(=O)N(C)CCOCC(=O)N(C)C2CCC(N3CCC(N4CCCC4)CC3)CC2)c(C)c1` (stereo not drawn) [(468)] yielded a Ki of 1 nM. For `COc1cc(C)c(S(=O)(=O)N(C)CCC(=O)NC2CCN(c3ccc(CN4CCCC4)cc3Cl)CC2)c(C)c1` [(188)] the value was 9.4 nM; for `COc1cc(C)c(S(=O)(=O)N(C)CCOCC(=O)N(C)C2CCC(N3CCC(C4CCN(C)CC4)CC3)CC2)c(C)c1` (stereo not drawn) [(588)], 1.5 nM; for `COc1cc(C)c(S(=O)(=O)N(C)CCOCC(=O)N(C)[C@H]2CC[C@@H](CCN(C)C)CC2)c(C)c1` [(620)], 5.9 nM.

On to `COc1cc(Cl)cc(Cl)c1S(=O)(=O)N(C)CCOCC(=O)N(C)[C@@H]1CCN(C2CCN(C)CC2)C1` [(469)], for which the Ki came out at 8 nM. The Ki values of the last two compounds are within 1.5-fold of each other. Compound `COc1cc(C)c(S(=O)(=O)N(C)CCOCC(=O)N(C)Cc2ccc(CN(C)C3CCCC3)cc2)c(C)c1` [(102)] registered an inhibitory constant (Ki) of 5 nM. For `COc1cc(C)c(S(=O)(=O)N(C)CCC(=O)Nc2ccc(N3CCN(c4ccncc4)CC3)nc2)c(C)c1` [(22)] the value was 7 nM. For `COc1cc(C)c(S(=O)(=O)N(C)CCC(=O)Nc2cc(F)c(N3CCC(N(C)C)CC3)cc2C)c(C)c1` [(183)] the value was 6.6 nM; for `COc1cc(C)c(S(=O)(=O)N(C)CCOCC(=O)N(C)Cc2ccc(CN3CCCC3)cc2)c(C)c1` [(109)], 6 nM; for `COc1cc(C)c(S(=O)(=O)N(C)CCOCC(=O)N(C)Cc2ccc3[nH]c(N)nc3c2)c(C)c1` [(361)], 7.4 nM. `COc1cc(C)c(S(=O)(=O)N(C)CCOCC(=O)N(C)[C@@H]2CCN(C3CCN(CC4CC4)CC3)C2)c(C)c1` [(458)] returned a Ki of 4.3 nM. For `COc1cc(C)c(S(=O)(=O)N(C)CCOCC(=O)N(C)[C@H]2CCN(C3CCN(C(C)C)CC3)C2)c(C)c1` [(399)] the value was 3 nM. On to `COc1cc(C)c(S(=O)(=O)N(C)CCOCC(=O)N(C)CC2CCC(N3CCN(C)CC3)CC2)c(C)c1` (stereo not drawn) [(420)], for which the affinity, expressed as Ki, was 9.1 nM. This Ki lies about 3-fold higher than the previous one. `COc1cc(C)c(S(=O)(=O)N(C)CCOCC(=O)N(C)C2CCCN(C3CCN(C)CC3)CC2)c(C)c1` (stereo not drawn) [(451)] returned a Ki of 9 nM.

Take `COc1cc(C)c(S(=O)(=O)N(C)CCOCC(=O)N(C)[C@H]2CC[C@@H](OCCN3CCCC3)CC2)c(C)c1` [(614)]: the affinity, expressed as Ki, was 2 nM.

With `CCN(CC)CC1CCN(c2ccc(NC(=O)CCN(C)S(=O)(=O)c3c(C)cc(OC)cc3C)cc2C)CC1` [(97)], the affinity corresponds to a Ki of 6.7 nM. The compound `COc1cc(C)c(S(=O)(=O)N(C)CCOCC(=O)N(C)CC2CCN(C(=O)CCN3CCCC3)CC2)c(C)c1` [(475)] had a Ki of 2.4 nM. Regarding `COc1cc(C)c(S(=O)(=O)N(C)CCOCC(=O)N(C)CC2CCN(c3cc[n+](C)cc3)CC2)c(C)c1` [(114)], the Ki worked out at 4.4 nM. This Ki is about 1.8-fold higher than that of the compound before. Consider `COc1cc(C)c(S(=O)(=O)N(C)CCOCC(=O)N(C)Cc2ccc3nc(N(C)C)ccc3c2)c(C)c1` [(365)], for which affinity was put at a Ki of 2.4 nM. For `COc1cc(C)c(S(=O)(=O)N(C)CCOCC(=O)N(C)C2CCC(C3CCN(C)CC3)CC2)c(C)c1` (stereo not drawn) [(477)] the value was 5.8 nM; for `COc1cc(C)c(S(=O)(=O)N(C)CCC(=O)Nc2ccc(N3CCN(c4ccncc4)CC3)cc2)c(C)c1` [(13)], 2.1 nM; for `COc1cc(C)c(S(=O)(=O)N(C)CCOCC(=O)N(C)[C@H]2CC[C@@H](CN3CCC[C@@H](N(C)C)C3)CC2)c(C)c1` [(476)], 2.35 nM. For `COc1cc(C)c(S(=O)(=O)N(C)CCOCC(=O)N(C)Cc2ccc3nc(NCCN(C)C)ccc3c2)c(C)c1` [(368)] the value was 1.52 nM; for `COc1cc(C)c(S(=O)(=O)N(C)CCOCC(=O)N(C)C2CCc3cc(CN4CCCC4)ccc32)c(C)c1` (stereo not drawn) [(424)], 1.4 nM. For `COc1cc(C)c(S(=O)(=O)N(C)CCOCC(=O)N(C)Cc2ccc(C3CCN(C)CC3)cc2)c(C)c1` [(326)] the value was 6.5 nM.

For the compound `CCN(CC)CC1CCN(c2ccc(NC(=O)CCN(C)S(=O)(=O)c3c(C)cc(OC)cc3C)cc2Cl)CC1` [(181)], the Ki is 7.1 nM. As to `COc1cc(C)c(S(=O)(=O)N(C)CCOCC(=O)N(C)C[C@]2(C)CC[C@H](CN3CCCC3)C2(C)C)c(C)c1` [(423)], the Ki was determined as 3.4 nM. Against the preceding compound, the Ki is about 2.1-fold lower. The compound `COc1cc(C)c(S(=O)(=O)N(C)CCOCC(=O)N(C)[C@@H]2CCN(C(=O)CCN3CCCCC3)C2)c(C)c1` [(623)] showed an inhibition constant (Ki) of 3.4 nM. For `COc1cc(C)c(S(=O)(=O)N(C)CCOCC(=O)N(C)C2CCc3cc(OCCN4CCCC4)ccc32)c(C)c1` (stereo not drawn) [(418)] the value was 1.2 nM; for `CNc1ccc2cc(CN(C)C(=O)COCCN(C)S(=O)(=O)c3c(C)cc(OC)cc3C)ccc2n1` [(367)], 2.7 nM. For `COc1cc(C)c(S(=O)(=O)N(C)CCOCC(=O)N(C)[C@@H]2CCN(C3CCN(C4CCCC4)CC3)C2)c(C)c1` [(478)] the value was 1 nM; for `COc1cc(C)c(S(=O)(=O)N(C)CCOCC(=O)N(C)[C@@H]2CCN(C(=O)CCN3CCCC3)C2)c(C)c1` [(580)], 6.2 nM. For `COc1cc(C)c(S(=O)(=O)N(C)CCOCC(=O)N(C)[C@H]2CC[C@@H](OCCN(C)C)CC2)c(C)c1` [(613)] the value was 9.7 nM; for `COc1cc(C)c(S(=O)(=O)N(C)CCC(=O)NCc2ccc(N3CCC(N4CCCC4)CC3)c(C)c2)c(C)c1` [(269)], 7.8 nM.

Usually Ki stands for a measure of affinity in units of concentration, obtained from inhibition or displacement. Read a high Ki as a looser hold on the target.
